Data: US12285403B2, “A2-73 as a therapeutic for insomnia, anxiety and agitation” (Anavex Life Sciences Corp., priority 2016, dated 2025)
“Also recorded” adds a separate entry of the source.

Tests used:
Type in all cases: in vivo, human
[1] = tested on: mild-to-moderate Alzheimer's disease patients; assay: ADCS-ADL (Activities of Daily Living), Phase 2a study; details: for ADCS-ADL scores: through week 31, oral daily 10 mg to 50 mg, FIG. 2
Text: (§1) Although the present invention calls for methods of treating insomnia, some primary sleep disorders, such as circadian rhythm disorders, advanced sleep phase disorder also termed sleep onset insomnia, mid-nocturnal insomnia, early morning insomnia, hyper insomnia, trouble staying asleep, jet lag, narcolepsy, non-24-hour sleep-wake syndrome, include insomnia as a component of the disorder. Thus, the term “insomnia” should be understood to also include the insomnia component of these disorders. • Aβ—Amyloid beta is abbreviated as Aβ. • AD—Alzheimer's disease is abbreviated as AD. • ADCS-ADL—Alzheimer's Disease Cooperative Study Activities of Daily Living Inventory is abbreviated as ADCS-ADL. • Cogstate tasks—Cogstate tasks refers to Cogstate cognitive tests (Cogstate Alzheimer's Battery) using visual and verbal stimuli to ensure assessment. These tests assess cognitive function in adults with mild cognitive impairment and clinically-diagnosed Alzheimer's disease. The test is culture-neutral and not limited by a subject or participant's level of education. A Cogstate battery comprises a number of individual tests—each designed to test a specific area of cognition. When a number of these individual tests are put together to form a test battery, a more complete picture of a person's cognitive state can be defined. • DPZ—Donepezil is abbreviated as DPZ. • EEG/ERP—EEG/ERP is a reference to ERP measured via EEG. • ERP—Event-related potential is abbreviated as ERP. • HAM-D—Hamilton Depression Rating Scale is abbreviated as HAM-D. • MCI—Mild cognitive impairment is abbreviated as MCI. • MMSE—MMSE refers to the Mini-Mental State Examination (MMSE) or Folstein test. This test is a 30-point questionnaire that is used extensively in clinical and research settings to measure cognitive impairment. • SWS—Slow-wave sleep is abbreviated as SWS. • WASO.—Waking after sleep onset is abbreviated WASO.
(§2) Efficacy data is presented through 31 week from the randomized (into different treatment regimens) open-label study with ANAVEX 2-73 oral daily dosing ranging from 10 mg to 50 mg. […]

[2] = tested on: mild-to-moderate Alzheimer's disease patients; assay: MMSE (Mini-Mental State Examination), Phase 2a study; details: over 31 weeks; for MMSE scores: oral daily 10 mg to 50 mg, FIG. 1
Text: as §1, §2

[3] = tested on: mild-to-moderate Alzheimer's disease patients; assay: Cogstate test battery, Phase 2a study; details: over 31 weeks of treatment; FIG. 8; listed as ANAVEX 2-73, hydrochloride
Text: Although the present invention calls for methods of treating insomnia, some primary sleep disorders, such as circadian rhythm disorders, advanced sleep phase disorder also termed sleep onset insomnia, mid-nocturnal insomnia, early morning insomnia, hyper insomnia, trouble staying asleep, jet lag, narcolepsy, non-24-hour sleep-wake syndrome, include insomnia as a component of the disorder. Thus, the term “insomnia” should be understood to also include the insomnia component of these disorders. • Aβ—Amyloid beta is abbreviated as Aβ. • AD—Alzheimer's disease is abbreviated as AD. • ADCS-ADL—Alzheimer's Disease Cooperative Study Activities of Daily Living Inventory is abbreviated as ADCS-ADL. • Cogstate tasks—Cogstate tasks refers to Cogstate cognitive tests (Cogstate Alzheimer's Battery) using visual and verbal stimuli to ensure assessment. […] When a number of these individual tests are put together to form a test battery, a more complete picture of a person's cognitive state can be defined. • DPZ—Donepezil is abbreviated as DPZ. • EEG/ERP—EEG/ERP is a reference to ERP measured via EEG. • ERP—Event-related potential is abbreviated as ERP. • HAM-D—Hamilton Depression Rating Scale is abbreviated as HAM-D. • MCI—Mild cognitive impairment is abbreviated as MCI. • MMSE—MMSE refers to the Mini-Mental State Examination (MMSE) or Folstein test. […]

[4] = tested on: mild-to-moderate AD patients; assay: Hamilton Depression Rating Scale (HAM-D), open-label Phase 2a clinical trial; details: for Insomnia HAM-D Q5 Middle Insomnia, Mean ± SD / Insomnia HAM-D Q6 Late Insomnia, Mean ± SD / Insomnia HAM-D Q4 Initial Insomnia, Mean ± SD: score 0-2; for Insomnia HAM-D Q5 Middle Insomnia, Mean ± SD: baseline 1.5 ± 0.7; for Insomnia HAM-D Q6 Late Insomnia, Mean ± SD: baseline 1.6 ± 0.5; for Insomnia HAM-D Q4 Initial Insomnia, Mean ± SD: baseline 2 ± 0.0
Experimental: Efficacy data is presented through 31 week from the randomized (into different treatment regimens) open-label study with ANAVEX 2-73 oral daily dosing ranging from 10 mg to 50 mg. The data establish a method for treating insomnia, anxiety, or agitation in a subject. Efficacy extends to daily doses of up to about 100 mg of […], A1-41 or A19-144. Note is made of doses of A2-73, A1-41 or A19-144 of about 10 mg to about 30 mg, about 20 mg to about 40 mg, about 50 mg to about 80 mg. Oral dosing daily or every other day is contemplated.
This is consistent with Table 1 showing a reduction in insomnia, anxiety, and other symptoms.
The data of Table 1 is from an open-label, clinical trial, performed on a group of 30 mild-to-moderate AD patients (MMSE range 16-23, 40% female) on donepezil treatment, with ANAVEX 2-73.

[5] = listed as ANAVEX 2-73, hydrochloride
[6] = 30 mild-to-moderate AD patients on donepezil, open-label
[7] = 30 mild-to-moderate AD patients on donepezil, open-label, total 28 improvements

CN(C)CC1CCOC1(c1ccccc1)c1ccccc1.Cl (centres unmarked) [A2-73, tetrahydro-N,N-dimethyl-2,2-diphenyl-3-furanmethanamine hydrochloride]
ADCS-ADL score, ANAVEX 2-73 alone vs ANAVEX 2-73 with DPZ (donepezil) ([1]; over 31 weeks, exploratory analysis, FIG. 6): no notable difference
ADCS-ADL scores ([1]; hydrochloride): maintained at a constant level
ADCS-ADL scores [1, 5]: preserves average MMSE and ADCS-ADL scores
MMSE scores ([2]; hydrochloride): maintained at the same level
MMSE scores [2, 5]: preserves average MMSE and ADCS-ADL scores
MMSE score, ANAVEX 2-73 alone vs ANAVEX 2-73 with DPZ (donepezil) ([2]; exploratory analysis, FIG. 5): no notable difference
Cogstate tasks: psychomotor function, attention and working memory [3]: sustained benefit; also recorded: benefits over baseline
Scored Improvement Count, improved item of HAM-D: Agitation [4, 6]: 4
Scored Improvement Count, improved item of HAM-D: Anxiety (psychic and somatic) [4, 6]: 5
Scored Improvement Count, improved item of HAM-D: Depressed [4, 6]: 4
Scored Improvement Count, improved item of HAM-D: Guilt [4, 6]: 1
Scored Improvement Count, improved item of HAM-D: Hypochondriasis [4, 6]: 2
Scored Improvement Count, improved item of HAM-D: Insight [4, 6]: 3
Scored Improvement Count, improved item of HAM-D: Insomnia [4, 6]: 8
Scored Improvement Count, improved item of HAM-D: Loss of libido or other genital symptoms [4, 6]: 2
Scored Improvement Count, improved item of HAM-D: Work and activities [4, 6]: 6
Scored Improvement in [%], improved item of HAM-D: Agitation [4, 7]: 14%
Scored Improvement in [%], improved item of HAM-D: Anxiety (psychic and somatic) [4, 7]: 18%
Scored Improvement in [%], improved item of HAM-D: Depressed [4, 7]: 14%
Scored Improvement in [%], improved item of HAM-D: Guilt [4, 7]: 4%
Scored Improvement in [%], improved item of HAM-D: Hypochondriasis [4, 7]: 7%
Scored Improvement in [%], improved item of HAM-D: Insight [4, 7]: 11%
Scored Improvement in [%], improved item of HAM-D: Insomnia [4, 7]: 29%
Scored Improvement in [%], improved item of HAM-D: Loss of libido or other genital symptoms [4, 7]: 7%
Scored Improvement in [%], improved item of HAM-D: Work and activities [4, 7]: 21%
Insomnia HAM-D Q5 Middle Insomnia, Mean ± SD ([4]; Day 13): 1.0 ± 1.4
Insomnia HAM-D Q6 Late Insomnia, Mean ± SD ([4]; Day 13): 0.0 ± 0.0
Insomnia HAM-D Q4 Initial Insomnia, Mean ± SD ([4]; Day 13): 2 ± 0.0
Insomnia HAM-D Q5 Middle Insomnia, Mean ± SD ([4]; Week 12/26): 0.0 ± 0.0
Insomnia HAM-D Q6 Late Insomnia, Mean ± SD ([4]; Week 12/26): 0.0 ± 0.0
Insomnia HAM-D Q4 Initial Insomnia, Mean ± SD ([4]; Week 12/26): 0.0 ± 0.0
Overall Hamilton Depression Rating Scale (HAM-D) ([4]; after 31 weeks of dosing, FIG. 7): reduction
Changes in other behavioral items (HAM-D) ([4]; baseline to week 12): not statistically significant
Subjective reports of insomnia (sleep items of HAM-D) ([4]; baseline to week 12, t=4.2, p<0.05, 30 AD patients, listed as ANAVEX 2-73, hydrochloride): marked insomnia improvements
Scored Improvement Count, improved items of HAM-D: Total ([4]; sum over all improved HAM-D items): 28
